According to ChEMBL document CHEMBL3046848, “Synthesis and biological evaluation of novel series of thieno[2,3-d]pyrimidine derivatives as anticancer and antimicrobial agents” (2013):
≈ marks a conversion by molar mass, not a printed value.

Assays:
Assay type in all cases: functional
HCC 2998 = test: Anticancer activity against Homo sapiens (human) HCC2998 cells after 48 hr by SRB assay; details: HCC 2998, 48 h
BT-549 = test: Anticancer activity against Homo sapiens (human) BT549 cells after 48 hr by SRB assay; details: BT-549, 48 h
OVCAR-3 [1] = test: Growth inhibition of Homo sapiens (human) OVCAR3 cells at 10 uM after 48 hr by SRB assay; details: OVCAR-3, 48 h, read-out: GI
TK-10 = test: Anticancer activity against Homo sapiens (human) TK10 cells after 48 hr by SRB assay; details: TK-10, 48 h
HOP-92 = test: Growth inhibition of Homo sapiens (human) HOP92 cells at 10 uM after 48 hr by SRB assay; details: HOP-92, 48 h, read-out: GI
MOLT-4 = test: Growth inhibition of Homo sapiens (human) MOLT4 cells at 10 uM after 48 hr by SRB assay; details: MOLT-4, 48 h, read-out: GI
SNB-75 = test: Growth inhibition of Homo sapiens (human) SNB75 cells at 10 uM after 48 hr by SRB assay; details: SNB-75, 48 h, read-out: GI
SF-268 [2] = test: Growth inhibition of Homo sapiens (human) SF268 cells at 10 uM after 48 hr by SRB assay; details: SF-268, 48 h, read-out: GI
OVCAR-5 = test: Growth inhibition of Homo sapiens (human) OVCAR5 cells at 10 uM after 48 hr by SRB assay; details: OVCAR-5, 48 h, read-out: GI
SK-MEL-5 = test: Anticancer activity against Homo sapiens (human) SK-MEL-5 cells after 48 hr by SRB assay; details: SK-MEL-5, 48 h
SR = test: Anticancer activity against Homo sapiens (human) SR cells after 48 hr by SRB assay
HT-29 = test: Growth inhibition of Homo sapiens (human) HT-29 cells at 10 uM after 48 hr by SRB assay; details: HT-29, 48 h, read-out: GI
U-251 = test: Growth inhibition of Homo sapiens (human) U251 cells at 10 uM after 48 hr by SRB assay; details: U-251, 48 h, read-out: GI
NCI-H226 = test: Anticancer activity against Homo sapiens (human) NCI-H226 cells after 48 hr by SRB assay; details: NCI-H226, 48 h
NCI-H522 = test: Anticancer activity against Homo sapiens (human) NCI-H522 cells after 48 hr by SRB assay; details: NCI-H522, 48 h
SK-MEL-28 = test: Anticancer activity against Homo sapiens (human) SK-MEL-28 cells after 48 hr by SRB assay; details: SK-MEL-28, 48 h
NCI/ADR-RES [3] = test: Anticancer activity against Homo sapiens (human) NCI/ADR-RES cells after 48 hr by SRB assay
NCI-H460 = test: Anticancer activity against Homo sapiens (human) NCI-H460 cells after 48 hr by SRB assay; details: NCI-H460, 48 h
KM12 = test: Anticancer activity against Homo sapiens (human) KM12 cells after 48 hr by SRB assay; details: KM12, 48 h
SK-OV-3 = test: Anticancer activity against Homo sapiens (human) SKOV3 cells after 48 hr by SRB assay; details: SK-OV-3, 48 h
NCI/ADR-RES [4] = test: Growth inhibition of Homo sapiens (human) NCI/ADR-RES cells at 10 uM after 48 hr by SRB assay; details: read-out: GI
OVCAR-3 [5] = test: Anticancer activity against Homo sapiens (human) OVCAR3 cells after 48 hr by SRB assay; details: OVCAR-3, 48 h
SN12C [6] = test: Anticancer activity against Homo sapiens (human) SN12C cells after 48 hr by SRB assay
ACHN = test: Anticancer activity against Homo sapiens (human) ACHN cells after 48 hr by SRB assay
SK-MEL-2 = test: Anticancer activity against Homo sapiens (human) SK-MEL-2 cells after 48 hr by SRB assay; details: SK-MEL-2, 48 h
CCRF-CEM = test: Anticancer activity against Homo sapiens (human) CCRF-CEM cells after 48 hr by SRB assay
OVCAR-4 = test: Growth inhibition of Homo sapiens (human) OVCAR4 cells at 10 uM after 48 hr by SRB assay; details: OVCAR-4, 48 h, read-out: GI
NCI-H23 = test: Anticancer activity against Homo sapiens (human) NCI-H23 cells after 48 hr by SRB assay; details: NCI-H23, 48 h
SN12C [7] = test: Growth inhibition of Homo sapiens (human) SN12C cells at 10 uM after 48 hr by SRB assay; details: read-out: GI
Pseudomonas aeruginosa = test: Antimicrobial activity against Pseudomonas aeruginosa ATCC9027 assessed as growth inhibition after 48 hr by two-fold serial dilution method; details: ATCC9027, 48 h
SF-268 [8] = test: Anticancer activity against Homo sapiens (human) SF268 cells after 48 hr by SRB assay; details: SF-268, 48 h
RXF 393 = test: Anticancer activity against Homo sapiens (human) RXF393 cells after 48 hr by SRB assay; details: RXF 393, 48 h
M14 = test: Anticancer activity against Homo sapiens (human) M14 cells after 48 hr by SRB assay; details: M14, 48 h
[9] = read-out: LC50 (the source's name)

## Cc1c(C(N)=O)sc2nc(C)n(/N=c3\scc(-c4ccccc4)n3Cc3ccccc3)c(=O)c12
HCC 2998
  GI50: 3.05 µM
  TGI: > 100 µM
HCC 2998; [9]
  CC50: > 100 µM
BT-549
  GI50: 2410 nM
  TGI: 8.89 µM
BT-549; [9]
  CC50: > 100 µM
OVCAR-3 [1]
  inhibition of growth at 10 µM: 95.7%
TK-10
  GI50: 3.78 µM
  TGI: > 100 µM
TK-10; [9]
  CC50: > 100 µM
HOP-92
  inhibition of growth at 10 µM: 119%
MOLT-4
  inhibition of growth at 10 µM: 87.9%
SNB-75
  inhibition of growth at 10 µM: 45.2%
SF-268 [2]
  inhibition of growth at 10 µM: 78.7%
OVCAR-5
  inhibition of growth at 10 µM: 52.1%
SK-MEL-5
  GI50: 1810 nM
  TGI: 3.75 µM
SK-MEL-5; [9]
  CC50: 7.75 µM
SR
  GI50: 5.74 µM
  TGI: > 100 µM
SR; [9]
  CC50: > 100 µM
HT-29
  inhibition of growth at 10 µM: 20.5%
U-251
  inhibition of growth at 10 µM: 92.2%
NCI-H226
  GI50: 3.72 µM
  TGI: 67.9 µM
NCI-H226; [9]
  CC50: > 100 µM
NCI-H522
  GI50: 1730 nM
  TGI: 7.23 µM
NCI-H522; [9]
  CC50: > 100 µM
SK-MEL-28
  GI50: 3.56 µM
  TGI: > 100 µM
SK-MEL-28; [9]
  CC50: > 100 µM
NCI/ADR-RES [3]
  GI50: 2900 nM
  TGI: 29.2 µM
NCI/ADR-RES [3]; [9]
  CC50: > 100 µM
NCI-H460
  GI50: 2650 nM
  TGI: 7.34 µM
NCI-H460; [9]
  CC50: > 100 µM
KM12
  GI50: 3.37 µM
  TGI: > 100 µM
KM12; [9]
  CC50: > 100 µM
SK-OV-3
  GI50: 4.5 µM
  TGI: > 100 µM
SK-OV-3; [9]
  CC50: > 100 µM
NCI/ADR-RES [4]
  inhibition of growth at 10 µM: 81.1%
OVCAR-3 [5]
  GI50: 2280 nM
  TGI: 8.58 µM
OVCAR-3 [5]; [9]
  CC50: > 100 µM
SN12C [6]
  GI50: 3.84 µM
  TGI: > 100 µM
SN12C [6]; [9]
  CC50: > 100 µM
ACHN
  GI50: 2860 nM
  TGI: > 100 µM
ACHN; [9]
  CC50: > 100 µM
SK-MEL-2
  GI50: 3.89 µM
  TGI: 86.6 µM
SK-MEL-2; [9]
  CC50: > 100 µM
CCRF-CEM
  GI50: 34.2 µM
  TGI: > 100 µM
CCRF-CEM; [9]
  CC50: > 100 µM
OVCAR-4
  inhibition of growth at 10 µM: 66.5%
NCI-H23
  GI50: 3.12 µM
  TGI: > 100 µM
NCI-H23; [9]
  CC50: > 100 µM
SN12C [7]
  inhibition of growth at 10 µM: 52.3%
Pseudomonas aeruginosa
  MIC: 125 µg/mL (≈ 256 µM)
SF-268 [8]
  GI50: 4 µM
  TGI: > 100 µM
SF-268 [8]; [9]
  CC50: > 100 µM
RXF 393
  GI50: 3.43 µM
  TGI: > 100 µM
RXF 393; [9]
  CC50: > 100 µM
M14
  GI50: 3.88 µM
  TGI: 84.5 µM
M14; [9]
  CC50: > 100 µM
